Measurements: US7173019B2, “Linked cyclitols and their polysulfated derivatives” (The Australian National University, priority 2001, dated 2007)
≈ marks a conversion by molar mass, not a printed value.

Tests used:
[1] = target: T1, human platelet heparanase (Homo sapiens, UniProt Q9Y251); experiment: Heparanase inhibition, 3H-radiolabelled HS cleavage assay; format: biochemical
T1 construct: 10 ng of purified human platelet heparanase; from tissue; host or cells: human platelets
T1 sequence (Q9Y251 158-543 limits assumed): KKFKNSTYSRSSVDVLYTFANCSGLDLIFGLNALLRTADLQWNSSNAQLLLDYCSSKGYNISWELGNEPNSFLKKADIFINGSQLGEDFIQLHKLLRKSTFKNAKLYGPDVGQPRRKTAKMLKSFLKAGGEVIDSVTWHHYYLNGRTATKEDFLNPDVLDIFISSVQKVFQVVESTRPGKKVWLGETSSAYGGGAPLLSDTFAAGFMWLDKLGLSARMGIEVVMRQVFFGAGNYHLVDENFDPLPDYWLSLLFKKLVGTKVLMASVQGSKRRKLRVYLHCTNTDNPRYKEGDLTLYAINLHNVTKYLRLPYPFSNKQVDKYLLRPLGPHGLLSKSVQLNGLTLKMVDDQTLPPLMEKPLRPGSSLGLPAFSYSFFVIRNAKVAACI
T1 sequence (Q9Y251 36-109 limits assumed): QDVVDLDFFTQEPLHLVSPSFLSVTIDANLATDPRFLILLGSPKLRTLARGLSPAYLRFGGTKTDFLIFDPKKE
In short: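 Purified human platelet heparanase (10 ng) with ^3H-labelled porcine mucosal HS […] in 50 mM sodium acetate pH 5.0 plus BSA, 30 min; stopped by freezing. Products separated from substrate on histidine-rich glycoprotein–sepharose minicolumns; inhibition expressed relative to heparin at 30 μg/ml taken as 100%.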

rat aorta fragments = experiment: In vitro angiogenesis inhibition assay; format: cell-based; conditions: inhibitor 100 μg/ml; means of 4 culture wells per experiment; control 90; * significant, ** highly significant inhibition
Protocol: The ability of linked cyclitol compounds to inhibit angiogenesis in vitro was conducted using the assay essentially as described in the present applicant's International Patent Application No. PCT/AU95/00105 (Publication No. WO 95/23968), the entire content of which is incorporated herein by cross reference. The only changes to the procedure described in PCT/AU95/00105 were that the assays were conducted using rat aorta fragments rather than human placental vessel fragments.
All potential inhibitors were tested at 100 μg/ml with PI-88 also being tested at 10 μg/ml. The tabulated data represent means of 4 culture wells for each experiment. Significant inhibition of angiogenesis is indicated with a single asterisk while double asterisks denote highly significant inhibition.
The compounds were also tested at the same purity as in Example 15 save that the second entries for 4b and 4j relate to data obtained with higher purity compounds than the compounds used for the first data entries of each.

VEGF = target: T2, VEGF (Homo sapiens, UniProt P15692); experiment: Biacore biosensor: inhibition of VEGF binding to immobilised heparin and heparan sulfate; conditions: inhibitor 0.034 μM, VEGF 0.025 μM
T2 sequence (P15692 27-191 isoform P15692-4): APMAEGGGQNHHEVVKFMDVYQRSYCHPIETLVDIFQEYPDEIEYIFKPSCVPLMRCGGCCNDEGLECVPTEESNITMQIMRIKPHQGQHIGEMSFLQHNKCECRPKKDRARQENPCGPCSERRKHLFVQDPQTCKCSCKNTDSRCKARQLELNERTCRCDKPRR
In short: (§1)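 Biotinylated heparin (1 μg/ml) or heparan sulfate was captured on neutravidin-coupled CM5 biosensor chips. Test compound and growth factor were preincubated 2 to 5 min, then growth-factor binding to the immobilised glycosaminoglycan was monitored for about 5 min; values are IC50 (μM) or % inhibition of binding.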

IL-8 = target: T3, IL-8 (Homo sapiens, UniProt P10145); experiment: Biacore biosensor: inhibition of IL-8 binding to immobilised heparin and heparan sulfate; conditions: inhibitor 1.0 μM, IL-8 0.068 μM
T3 sequence (P10145 21-99): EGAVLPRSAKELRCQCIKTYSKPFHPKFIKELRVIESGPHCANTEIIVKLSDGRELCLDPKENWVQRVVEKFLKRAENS
In short: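 Biacore 2000 with neutravidin-coupled CM5 chips capturing biotinylated heparin (1 μg/ml) or heparan sulfate. Compound and IL-8 preincubated 2 to 5 minutes before injection; binding to the immobilised glycosaminoglycan monitored for about 5 minutes.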

[2] = target: T4, human leukocyte Cathepsin G (Homo sapiens, UniProt P08311); experiment: Cathepsin G inhibition, fluorogenic substrate, 96 well assay; format: biochemical; conditions: human leukocyte cathepsin G 100 ng, 37° C., 60 min, pH 6.6
T4 construct: human leukocyte Cathepsin G (100 ng protein); from tissue; host or cells: human leukocytes
T4 sequence (P08311 21-244): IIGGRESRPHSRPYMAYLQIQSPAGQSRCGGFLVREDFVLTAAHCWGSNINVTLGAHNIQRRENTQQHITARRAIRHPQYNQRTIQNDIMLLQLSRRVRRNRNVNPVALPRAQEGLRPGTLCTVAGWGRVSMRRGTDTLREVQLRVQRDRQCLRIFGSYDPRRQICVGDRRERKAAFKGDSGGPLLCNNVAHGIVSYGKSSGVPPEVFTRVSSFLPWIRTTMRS
In short: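 Inhibitor mixed with fluorogenic substrate MeOSuc-ala-ala-pro-phe-AMAC and human leukocyte Cathepsin G (100 ng) in 50 mM NaOAc pH 6.6, 50 mM NaCl, 0.1% Brij 35; 60 min at 37° C. Stopped with 250 mM acetic acid; fluorescence ex 360/em 460 nm. Value is concentration giving 50% inhibition.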

bFGF = bFGF (Homo sapiens, UniProt P09038); experiment: Biacore biosensor: inhibition of bFGF binding to immobilised heparin and heparan sulfate; conditions: inhibitor 0.034 μM, bFGF 0.034 μM
Chain of bFGF (P09038 134-288 limits assumed, species assumed): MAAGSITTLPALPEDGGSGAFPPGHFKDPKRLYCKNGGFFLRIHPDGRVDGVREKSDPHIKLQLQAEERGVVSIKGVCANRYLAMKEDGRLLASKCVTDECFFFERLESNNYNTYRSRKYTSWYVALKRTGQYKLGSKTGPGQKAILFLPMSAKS
In short: as §1

aFGF = aFGF (Homo sapiens, UniProt P05230); experiment: Biacore biosensor: inhibition of aFGF binding to immobilised heparin and heparan sulfate; conditions: inhibitor 0.034 μM, aFGF 0.025 μM
Chain of aFGF (P05230 whole entry, species assumed): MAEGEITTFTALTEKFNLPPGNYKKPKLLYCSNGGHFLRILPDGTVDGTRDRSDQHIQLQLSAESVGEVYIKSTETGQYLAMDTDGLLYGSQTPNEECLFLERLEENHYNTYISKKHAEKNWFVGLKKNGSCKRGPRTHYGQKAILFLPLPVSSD
In short: as §1

Relative inhibition (%) ([1]; based on a comparison with heparin with 100% inhibition at 30 μg/ml): 85%
EC50 ([1]; heparanase inhibition): 12 µg/mL (≈ 4.96 µM)
Inhibition of binding of VEGF (HS) (VEGF; immobilised heparan sulfate): 11% (HS)
Inhibition of binding of VEGF (Hep) (VEGF; immobilised heparin): 13% (Hep)
Inhibition of binding of IL-8 (HS) (IL-8; immobilised heparan sulfate): 42% (HS)
Inhibition of binding of IL-8 (Hep) (IL-8; immobilised heparin): 52% (Hep)
Amount for 50% inhibition [2]: 0.53 µg/mL
Inhibition of binding of bFGF (HS) (bFGF; immobilised heparan sulfate): 43% (HS)
Inhibition of binding of bFGF (Hep) (bFGF; immobilised heparin): 33% (Hep)
Inhibition of binding of aFGF (HS) (aFGF; immobilised heparan sulfate): 54% (HS)
Inhibition of binding of aFGF (Hep) (aFGF; immobilised heparin): 67% (Hep)
Compound: O=S(=O)(O)OC(CN([C@H]1[C@H](OS(=O)(=O)O)[C@H](OS(=O)(=O)O)[C@@H](OS(=O)(=O)O)[C@@H](OS(=O)(=O)O)[C@@H]1OS(=O)(=O)O)[C@H]1[C@H](OS(=O)(=O)O)[C@H](OS(=O)(=O)O)[C@@H](OS(=O)(=O)O)[C@@H](OS(=O)(=O)O)[C@@H]1OS(=O)(=O)O)CN([C@H]1[C@H](OS(=O)(=O)O)[C@H](OS(=O)(=O)O)[C@@H](OS(=O)(=O)O)[C@@H](OS(=O)(=O)O)[C@@H]1OS(=O)(=O)O)[C@H]1[C@H](OS(=O)(=O)O)[C@H](OS(=O)(=O)O)[C@@H](OS(=O)(=O)O)[C@@H](OS(=O)(=O)O)[C@@H]1OS(=O)(=O)O [Compound 5l]
% Growth (rat aorta fragments): 80%
